# In ChEMBL document CHEMBL1128840, “Synthesis of myo-inositol-1-phosphatase inhibitors in which the phosphate group is replaced by less polar groups” (Bioorg Med Chem Lett, 1995):
# pIC50: −log10 of the molar value.
# Target: T1, Inositol monophosphatase 1 (Bos taurus, UniProt P20456)
# T1 sequence (P20456 whole entry): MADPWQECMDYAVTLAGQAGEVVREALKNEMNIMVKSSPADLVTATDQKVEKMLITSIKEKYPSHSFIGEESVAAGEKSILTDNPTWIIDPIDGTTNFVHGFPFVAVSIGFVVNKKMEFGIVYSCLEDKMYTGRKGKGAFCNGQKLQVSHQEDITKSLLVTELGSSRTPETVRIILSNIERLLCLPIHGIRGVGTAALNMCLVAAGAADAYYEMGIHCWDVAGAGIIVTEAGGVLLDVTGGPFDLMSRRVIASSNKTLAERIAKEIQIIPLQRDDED
# Experiment: Inhibitory activity against myo-inositol-1-phosphatase; call rule not given here
row,Compound,pIC50
1,O=S(=O)(O)O[C@@H]1[C@H](O)C[C@@H](O)C[C@H]1OCCCCc1ccccc1O,4.05
2,O=P(O)(O)O[C@@H]1[C@H](O)C[C@@H](O)C[C@H]1OCCCc1ccccc1,6.10
3,CC(C)OP(=O)(O)O[C@@H]1[C@H](O)C[C@@H](O)C[C@H]1OCCCCc1ccccc1O,4.30
4,O=C1CCCCC1CCCCO[C@@H]1C[C@H](O)C[C@@H](O)[C@H]1OS(=O)(=O)O (some centres not stated),4.00
5,O=P(O)(O)O[C@@H]1[C@H](O)C[C@@H](O)C[C@H]1OCCCCc1ccccc1O,6.52
6,CC(=O)NS(=O)(=O)O[C@@H]1[C@H](O)C[C@@H](O)C[C@H]1OCCCCC1CCCCC1=O (some centres not stated),< 3.52
7,NS(=O)(=O)O[C@@H]1[C@H](O)C[C@@H](O)C[C@H]1OCCCCC1CCCCC1=O (some centres not stated),3.70
8,NS(=O)(=O)O[C@@H]1[C@H](O)C[C@@H](O)C[C@H]1OCCCCc1ccccc1O,< 3.52
9,CP(C)(=O)O[C@@H]1[C@H](O)C[C@@H](O)C[C@H]1OCCCCc1ccccc1O,< 3.52
10,CC(=O)NS(=O)(=O)O[C@@H]1[C@H](O)C[C@@H](O)C[C@H]1OCCCCc1ccccc1O,< 3.52

# Target: T1, Inositol monophosphatase 1
# Experiment: Compound was tested for inhibitory activity against myo-inositol-1-phosphatase; compound was not active at 300 uM
row,Compound,IC50
1,NC(=O)O[C@@H]1[C@H](O)C[C@@H](O)C[C@H]1OCCCCc1ccccc1O,Not Active

# Target: T1, Inositol monophosphatase 1
# Experiment: Compound was tested for inhibitory activity against myo-inositol-1-phosphatase; weak inhibitor
row,Compound,pIC50
1,O=C(O)CO[C@@H]1[C@H](O)C[C@@H](O)C[C@H]1OCCCCc1ccccc1O,< 3.52
